From patent US10947213B1 (Merck Patent GmbH, priority 2015, dated 2021)

These molecules were tested against T1, TLR7/NFKb HEK cells (Homo sapiens, UniProt Q9NYK1) (assay: HEK Cell Assay (TLR7/NFKb reporter, Steady-Glo luciferase readout)). Conditions: 30 min compound preincubation, then R*48 agonist for 5 hours, read-out: Potency.
T1 construct: expressed in transfected cells; host or cells: HEK cells (TLR7/NFKb reporter line)
T1 sequence (Q9NYK1 27-1049): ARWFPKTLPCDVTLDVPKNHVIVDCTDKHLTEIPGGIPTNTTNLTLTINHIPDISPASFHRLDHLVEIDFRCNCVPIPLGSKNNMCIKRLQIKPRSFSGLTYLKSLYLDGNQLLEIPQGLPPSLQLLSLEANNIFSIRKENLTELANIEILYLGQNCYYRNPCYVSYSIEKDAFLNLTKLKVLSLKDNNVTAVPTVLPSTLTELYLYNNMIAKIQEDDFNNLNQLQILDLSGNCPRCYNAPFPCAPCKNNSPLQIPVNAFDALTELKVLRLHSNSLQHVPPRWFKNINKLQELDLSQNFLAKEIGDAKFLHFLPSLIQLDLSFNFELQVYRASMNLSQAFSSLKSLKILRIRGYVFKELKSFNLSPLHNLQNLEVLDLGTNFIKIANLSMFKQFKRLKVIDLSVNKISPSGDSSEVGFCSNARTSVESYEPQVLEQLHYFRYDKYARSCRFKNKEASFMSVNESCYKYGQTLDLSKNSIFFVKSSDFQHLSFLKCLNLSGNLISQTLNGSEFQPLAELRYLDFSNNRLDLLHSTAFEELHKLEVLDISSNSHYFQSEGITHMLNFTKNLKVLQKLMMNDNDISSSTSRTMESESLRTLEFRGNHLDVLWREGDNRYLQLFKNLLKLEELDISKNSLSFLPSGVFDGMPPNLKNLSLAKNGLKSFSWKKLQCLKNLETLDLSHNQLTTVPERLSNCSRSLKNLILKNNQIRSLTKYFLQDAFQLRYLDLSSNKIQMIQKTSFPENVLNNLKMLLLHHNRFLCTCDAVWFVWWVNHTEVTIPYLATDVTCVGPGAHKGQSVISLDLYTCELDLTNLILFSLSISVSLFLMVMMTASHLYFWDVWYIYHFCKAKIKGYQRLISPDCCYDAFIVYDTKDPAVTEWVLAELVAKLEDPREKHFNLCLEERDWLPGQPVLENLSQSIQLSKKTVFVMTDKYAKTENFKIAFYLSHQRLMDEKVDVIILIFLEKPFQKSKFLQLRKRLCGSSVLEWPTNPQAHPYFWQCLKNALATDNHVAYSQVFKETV
Assay type: cell-based
Method in brief: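 Steady-Glo luminescence after 5 h stimulation with R*48 agonist, following 30 min compound preincubation. Assay run in HEK cells carrying a TLR7/NFKb luciferase reporter, plated at 5000 cells/well and grown 24 h at 37° C (10% CO2) before treatment.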

Row | IC50 [nM] | Structure (SMILES)
1 | < 1000 | CN1CCN(CC(=O)N[C@H]2C[C@@H](C3CC3)CN(c3ccc(C(F)(F)F)c4ncccc34)C2)CC1 (racemic) [Compound 338, cis-N-[5-cyclopropyl-1-[8-(trifluoromethyl)quinolin-5-yl]piperidin-3-yl]-2-(4-methylpiperazin-1-yl)acetamide]
2 | 1000 to 10000 | C[C@H]1C[C@@H](NC(=O)CN(C)C)CN(c2ccnc3nccnc23)C1 [Compound 33, 2-(dimethylamino)-N-((3R,5S)-5-methyl-1-(pyrido[2,3-b]pyrazin-8-yl)piperidin-3-yl)acetamide]
3 | < 1000 | C[C@H]1C[C@@H](NC(=O)CN2CCOCC2)CN(c2ccc(C#N)c3nccnc23)C1 [Compound 108, N-[(3R,5S)-1-(8-cyanoquinoxalin-5-yl)-5-methylpiperidin-3-yl]-2-(morpholin-4-yl)acetamide]
4 | < 1000 | C[C@H]1C[C@@H](NC2CCN(C)C2=O)CN(c2ccc(C(F)(F)F)c3nccnc23)C1 (single isomer, unassigned) [Compound 353]
5 | < 1000 | C[C@H]1C[C@@H](NC(=O)Cc2cn(C)cn2)CN(c2ccc(C#N)c3nccnc23)C1 [Compound 132, N-[(3R,5S)-1-(8-cyanoquinoxalin-5-yl)-5-methylpiperidin-3-yl]-2-(1-methyl-1H-imidazol-4-yl)acetamide]
6 | 1000 to 10000 | CNC(=O)[C@@H]1C[C@H](C)CN(c2ccc(C#N)c3nccnc23)C1 (relative stereo) [Compound 541, cis-1-(8-Cyano-quinoxalin-5-yl)-5-methyl-piperidine-3-carboxylic acid methylamide]
7 | > 10000 | C[C@H]1C[C@@H](NC(=O)CN(C)CCO)CN(c2ccnc3nccnc23)C1 [Compound 145, 2-[(2-hydroxyethyl)(methyl)amino]-N-[(3R,5S)-5-methyl-1-[pyrido[2,3-b]pyrazin-8-yl]piperidin-3-yl]acetamide]
8 | < 1000 | C#CC(=O)N[C@@H]1C[C@H](C)CN(c2ccc(C(F)(F)F)c3ncccc23)C1 [Compound 472, Propynoic acid [(3R,5S)-5-methyl-1-(8-trifluoromethyl-quinolin-5-yl)-piperidin-3-yl]-amide]
9 | < 1000 | COCCN[C@@H]1C[C@H](C)CN(c2ccc(OC)c3ncccc23)C1 [Compound 190, (3R,5S)—N-(2-methoxyethyl)-1-(8-methoxyquinolin-5-yl)-5-methylpiperidin-3-amine]
10 | > 10000 | C[C@H]1C[C@@H](NC(=O)CN(C)C)CN(c2ncc(F)c3nccnc23)C1 [Compound 460, 2-Dimethylamino-N-[(3R,5S)-1-(8-fluoro-pyrido[3,4-b]pyrazin-5-yl)-5-methyl-piperidin-3-yl]-acetamide]
11 | 1000 to 10000 | C[C@H]1C[C@@H](NC(=O)CNS(C)(=O)=O)CN(c2ccc(C(F)(F)F)c3ncccc23)C1 [Compound 474, 2-Methanesulfonylamino-N-[(3R,5S)-5-methyl-1-(8-trifluoromethyl-quinolin-5-yl)-piperidin-3-yl]-acetamide]
12 | 1000 to 10000 | CCN(CC)C1CCN(C(=O)C2CCN(c3ccnc4nccnc34)CC2)CC1 [Compound 2, (4-(diethylamino)piperidin-1-yl)(1-(pyrido[2,3-b]pyrazin-8-yl)piperidin-4-yl)methanone]
13 | 1000 to 10000 | C[C@H]1C[C@@H](N)CN(c2ccnc3ccccc23)C1 [Compound 11, (3R,5S)-5-methyl-1-(quinolin-4-yl)piperidin-3-amine]
14 | < 1000 | C[C@H]1C[C@@H](N)CN(c2ccnc3nccnc23)C1 [Compound 10, (3R,5S)-5-methyl-1-(pyrido[2,3-b]pyrazin-8-yl)piperidin-3-amine]
15 | < 1000 | C[C@H]1C[C@@H](NC(=O)C2CCN(C)C2)CN(c2ccc(C#N)c3nccnc23)C1 (stereo partly drawn) [Compound 236, N-[(3R,5S)-1-(8-cyanoquinoxalin-5-yl)-5-methylpiperidin-3-yl]-1-methylpyrrolidine-3-carboxamide]
16 | 1000 to 10000 | N#Cc1ccc(N2C[C@H](NC(=O)NCC3CC(F)(F)C3)C[C@H](C(F)(F)F)C2)c2cccnc12 [Compound 580, 1-[(3R,5S)-1-(8-Cyano-quinolin-5-yl)-5-trifluoromethyl-piperidin-3-yl]-3-(3,3-difluoro-cyclobutylmethyl)-urea]

Row | IC50 [nM] | Structure (SMILES)
17 | > 10000 | Cc1ncc(N2C[C@@H](C)C[C@@H](NC(=O)CCC(N)=O)C2)c2cccnc12 [Compound 564, N-[(3R,5S)-5-Methyl-1-(8-methyl-[1,7]naphthyridin-5-yl)-piperidin-3-yl]-succinamide]
18 | 1000 to 10000 | Cc1ncc(N2C[C@@H](C)C[C@@H](NC(=O)CC3CN(C)C3)C2)c2cccnc12 [Compound 556, 2-(1-Methyl-azetidin-3-yl)-N-[(3R,5S)-5-methyl-1-(8-methyl-[1,7]naphthyridin-5-yl)-piperidin-3-yl]-acetamide]
19 | < 1000 | C[C@H]1C[C@@H](NC(=O)CC(C)(C)C)CN(c2ccc(C(F)(F)F)c3ncccc23)C1 [Compound 195, 3,3-dimethyl-N-[(3R,5S)-5-methyl-1-[8-(trifluoromethyl)quinolin-5-yl]piperidin-3-yl]butanamide]
20 | < 1000 | C[C@H]1C[C@@H](NC(=O)CC2CC2(F)F)CN(c2ccc(C(F)(F)F)c3ncccc23)C1 (stereo partly drawn) [Compound 286, 2-(2,2-difluorocyclopropyl)-N-[(3R,5S)-5-methyl-1-[8-(trifluoromethyl)quinolin-5-yl]piperidin-3-yl]acetamide]
21 | 1000 to 10000 | CCN(CC)CCNC(=O)C1CCN(c2ccc(C#N)c3ncncc23)CC1 [Compound 397, 1-(8-Cyano-quinazolin-5-yl)-piperidine-4-carboxylic acid (2-diethylamino-ethyl)-amide]
22 | < 1000 | CN1CC(CC(=O)NC2CC(C(F)(F)F)CN(c3ccc(C#N)c4ncccc34)C2)C1 (racemic) [Compound 490, cis-N-[(1-(8-Cyano-quinolin-5-yl)-5-trifluoromethyl-piperidin-3-yl]-2-(1-methyl-azetidin-3-yl)-acetamide]
23 | < 1000 | C[C@H]1C[C@@H](NC(=O)CC(C)(C)CN)CN(c2ccc(C#N)c3nccnc23)C1 [Compound 277, 4-amino-N-[(3R,5S)-1-(8-cyanoquinoxalin-5-yl)-5-methylpiperidin-3-yl]-3,3-dimethylbutanamide]
24 | > 10000 | COc1ccc(C(=O)NCC2CCN(c3ccnc4nccnc34)CC2)cc1OC [Compound 391, 3,4-Dimethoxy-N-(1-pyrido[2,3-b]pyrazin-8-yl-piperidin-4-ylmethyl)-benzamide]
25 | < 1000 | C[C@H]1C[C@@H](NC(=O)NCCN(C)C)CN(c2ccc(C(F)(F)F)c3ncccc23)C1 [Compound 477, 1-(2-Dimethylamino-ethyl)-3-[(3R,5S)-5-methyl-1-(8-trifluoromethyl-quinolin-5-yl)-piperidin-3-yl]-urea]
26 | < 1000 | C[C@H]1C[C@@H](NC(=O)CC2CNC2)CN(c2ccc(C(F)(F)F)c3nccnc23)C1 [Compound 300, 2-(azetidin-3-yl)-N-[(3R,5S)-5-methyl-1-[8-(trifluoromethyl)quinoxalin-5-yl]piperidin-3-yl]acetamide]
27 | < 1000 | C[C@H]1C[C@@H](NC(=O)CC2CN(C)C2)CN(c2ccc(C(F)F)c3ncccc23)C1 [Compound 364, N-[(3R,5S)-1-[8-(difluoromethyl)quinolin-5-yl]-5-methylpiperidin-3-yl]-2-(1-methylazetidin-3-yl)acetamide]
28 | < 1000 | C[C@H]1C[C@@H](NC(=O)C2CC2(F)F)CN(c2ccc(C#N)c3nccnc23)C1 (stereo partly drawn) [Compound 165, N-[(3R,5S)-1-(8-cyanoquinoxalin-5-yl)-5-methylpiperidin-3-yl]-2,2-difluorocyclopropane-1-carboxamide]
29 | > 10000 | C[C@H]1C[C@@H](NC(=O)C2(C)COC2)CN(c2ccnc3nccnc23)C1 [Compound 37, 3-methyl-N-((3R,5S)-5-methyl-1-(pyrido[2,3-b]pyrazin-8-yl)piperidin-3-yl)oxetane-3-carboxamide]
30 | < 1000 | C[C@H]1C[C@@H](N)CN(c2ccc(C(F)(F)F)c3ncccc23)C1 [Compound 66, (3R,5S)-5-methyl-1-[8-(trifluoromethyl)quinolin-5-yl]piperidin-3-amine]
31 | < 1000 | C[C@H]1C[C@@H](NC(=O)CN2CC(O)C2)CN(c2ccc(C(F)(F)F)c3nccnc23)C1 [Compound 296, 2-(3-hydroxyazetidin-1-yl)-N-[(3R,5S)-5-methyl-1-[8-(trifluoromethyl)quinoxalin-5-yl]piperidin-3-yl]acetamide]
